Assay results: the NIST ThermoML archive (doi:10.1021/je800046k)
Numbers after ± are expanded uncertainties.

Assay: xn = mol fraction of the nth substance listed
Conditions: for surface tension liquid-gas: Pendant drop shape; for mass density: 101 kPa, Liquid

CC(=O)OCC(C)C [2-methylpropyl ethanoate] + Cc1cc(C)cc(C)c1
Conditions	mass density [kg/m3]	surface tension liquid-gas [mN/m]
298.15 K, x1 = 0.051	861.07 ± 0.55	27.76 ± 0.31
298.15 K, x1 = 0.1006	861.07 ± 0.57	27.49 ± 0.31
298.15 K, x1 = 0.1506	861.09 ± 0.59	27.2 ± 0.31
298.15 K, x1 = 0.2004	861.14 ± 0.62	26.91 ± 0.31
298.15 K, x1 = 0.2498	861.2 ± 0.64	26.62 ± 0.31
298.15 K, x1 = 0.3003	861.29 ± 0.67	26.31 ± 0.32
298.15 K, x1 = 0.35	861.41 ± 0.69	26.04 ± 0.32
298.15 K, x1 = 0.4004	861.56 ± 0.72	25.77 ± 0.32
298.15 K, x1 = 0.4502	861.74 ± 0.75	25.49 ± 0.32
298.15 K, x1 = 0.5004	861.94 ± 0.79	25.23 ± 0.32
298.15 K, x1 = 0.5499	862.17 ± 0.82	24.99 ± 0.32
298.15 K, x1 = 0.5996	862.44 ± 0.86	24.75 ± 0.33
298.15 K, x1 = 0.6494	862.74 ± 0.9	24.52 ± 0.33
298.15 K, x1 = 0.6998	863.09 ± 0.94	24.31 ± 0.33
298.15 K, x1 = 0.7498	863.46 ± 0.98	24.1 ± 0.33
298.15 K, x1 = 0.8007	863.89 ± 1	23.91 ± 0.34
298.15 K, x1 = 0.8502	864.36 ± 1.1	23.7 ± 0.34
298.15 K, x1 = 0.8998	864.88 ± 1.1	23.55 ± 0.34
298.15 K, x1 = 0.9491	865.43 ± 1.2	23.37 ± 0.34
298.15 K, x1 = 1	866.06 ± 1.2	23.15 ± 0.35
308.15 K, x1 = 0.0513	852.75 ± 0.57	26.89 ± 0.3
308.15 K, x1 = 0.0999	852.66 ± 0.59	26.61 ± 0.3
308.15 K, x1 = 0.1503	852.57 ± 0.61	26.3 ± 0.3
308.15 K, x1 = 0.2007	852.51 ± 0.63	26 ± 0.31
308.15 K, x1 = 0.2505	852.48 ± 0.65	25.7 ± 0.31
308.15 K, x1 = 0.3013	852.45 ± 0.68	25.39 ± 0.31
308.15 K, x1 = 0.35	852.46 ± 0.71	25.1 ± 0.31
308.15 K, x1 = 0.4002	852.49 ± 0.74	24.82 ± 0.31
308.15 K, x1 = 0.4506	852.56 ± 0.77	24.55 ± 0.31
308.15 K, x1 = 0.5	852.64 ± 0.8	24.29 ± 0.31
308.15 K, x1 = 0.5505	852.78 ± 0.83	24.03 ± 0.31
308.15 K, x1 = 0.5997	852.91 ± 0.87	23.77 ± 0.32
308.15 K, x1 = 0.6503	853.09 ± 0.91	23.53 ± 0.32
308.15 K, x1 = 0.6995	853.32 ± 0.94	23.32 ± 0.32
308.15 K, x1 = 0.75	853.57 ± 0.98	23.09 ± 0.32
308.15 K, x1 = 0.8002	853.86 ± 1	22.89 ± 0.32
308.15 K, x1 = 0.8502	854.21 ± 1.1	22.7 ± 0.33
308.15 K, x1 = 0.8997	854.61 ± 1.1	22.52 ± 0.33
308.15 K, x1 = 0.9498	855.03 ± 1.2	22.35 ± 0.33
308.15 K, x1 = 1	855.51 ± 1.2	22.16 ± 0.33
313.15 K, x1 = 0.0494	848.6 ± 0.57	26.45 ± 0.3
313.15 K, x1 = 0.1	848.45 ± 0.59	26.14 ± 0.3
313.15 K, x1 = 0.1493	848.33 ± 0.61	25.81 ± 0.3
313.15 K, x1 = 0.2002	848.2 ± 0.64	25.52 ± 0.3
313.15 K, x1 = 0.2499	848.1 ± 0.66	25.2 ± 0.3
313.15 K, x1 = 0.299	848.03 ± 0.69	24.92 ± 0.3
313.15 K, x1 = 0.3492	847.98 ± 0.71	24.62 ± 0.3
313.15 K, x1 = 0.3988	847.95 ± 0.74	24.33 ± 0.3
313.15 K, x1 = 0.4492	847.96 ± 0.77	24.06 ± 0.31
313.15 K, x1 = 0.5003	847.98 ± 0.8	23.78 ± 0.31
313.15 K, x1 = 0.5518	848.05 ± 0.84	23.51 ± 0.31
313.15 K, x1 = 0.5992	848.13 ± 0.87	23.28 ± 0.31
313.15 K, x1 = 0.6503	848.26 ± 0.91	23.02 ± 0.31
313.15 K, x1 = 0.6995	848.41 ± 0.95	22.78 ± 0.31
313.15 K, x1 = 0.7512	848.61 ± 0.99	22.56 ± 0.32
313.15 K, x1 = 0.8005	848.85 ± 1	22.35 ± 0.32
313.15 K, x1 = 0.8499	849.13 ± 1.1	22.14 ± 0.32
313.15 K, x1 = 0.9002	849.43 ± 1.1	21.98 ± 0.32
313.15 K, x1 = 0.9504	849.8 ± 1.2	21.81 ± 0.32
313.15 K, x1 = 1	850.16 ± 1.2	21.64 ± 0.33
